The data set in a line: Cytotoxicity activity against human HepG2 cells assessed by CellTiter-Glo luminescent cell viability assay. Details: assay stage confirmatory assay, source tissue liver. As to conditions: HepG2 cells, read-out: IC50 relative. It counts as toxicity, cell-based.

Each structure is given as a SMILES string. Where a name gives a salt, the structure may show the parent alone. Calls of active or inactive are those of the source. The rule behind the calls is not given here.

Take `c1ccc2c(c1)[I+]c1ccccc1-2` [DIPHENYLENEIODONIUM CHLORIDE]: the CC50 is 0.2 µM (active).
The value for `COc1cc2c(O)c3c(c(-c4ccc5c(c4)OCO5)c2cc1OC)C(=O)OC3` [DIPHYLLIN] was 1.4 µM (active).
The value for `CCN(CC)C(=S)S` [DITIOCARB SODIUM] was 6.6 µM (active); that for `COc1cc2nc(N3CCN(C(=O)C4COc5ccccc5O4)CC3)nc(N)c2cc1OC` (stereo not given) [DOXAZOSIN MESYLATE] was 13.5 µM (inactive).
The same measure for `CN1CCN(Cc2ccc(Nc3ncc(Cl)c(Nc4ccccc4S(=O)(=O)N(C)C)n3)cc2)CC1` [DUBERMATINIB]: 11.2 µM (active); for `CNCC[C@H](Oc1cccc2ccccc12)c1cccs1` [DULOXETINE HYDROCHLORIDE]: 4.3 µM (active).
Consider `CCCCOc1ccc(C(=O)CCN2CCCCC2)cc1` [DYCLONINE HYDROCHLORIDE], for which the CC50 was 9.9 µM (active).
The value for `O=c1c2ccccc2[se]n1-c1ccccc1` [EBSELEN] was 28.4 µM (inactive); that for `CC1(C)CC=C(c2nc(C3CC(C)(C)OC(C)(C)C3)ccc2NC(=O)c2nc(C#N)c[nH]2)CC1` [EDICOTINIB] was 2.8 µM (active).
`OC(CN1CCC(Cc2ccc(F)cc2)CC1)c1ccc(Cl)cc1` (stereo not given) [ELIPRODIL]: the CC50 was 50 µM (inactive).
Consider `CC[C@H]1CN2CCc3cc(OC)c(OC)cc3[C@@H]2C[C@@H]1C[C@H]1NCCc2cc(OC)c(OC)cc21` [EMETINE HYDROCHLORIDE], for which the CC50 is 0.2 µM (active).
The value for `COC(=O)N[C@@H](C)CNc1nccc(-c2cn(C(C)C)nc2-c2cc(Cl)cc(NS(C)(=O)=O)c2F)n1` [ENCORAFENIB] was 0.9 µM (active).
`CCOc1ccccc1-n1c(C(C)N2CCN(C(=O)COc3ccc(Cl)cc3)CC2)nc2ccccc2c1=O` (stereo not given) [ERASTIN]: the CC50 is 1.8 µM (active).
For the compound `COc1cc(OC)cc(N(CCNC(C)C)c2ccc3ncc(-c4cnn(C)c4)nc3c2)c1` [ERDAFITINIB], the CC50 was 3.9 µM (active).
With `C#Cc1cccc(Nc2ncnc3cc(OCCOC)c(OCCOC)cc23)c1` [ERLOTINIB HYDROCHLORIDE], the CC50 is 3.4 µM (inactive).
Regarding `Cc1cc(C#N)cc(C)c1Oc1nc(Nc2ccc(C#N)cc2)nc(N)c1Br` [ETRAVIRINE], the CC50 was 50 µM (inactive).
The same measure for `COc1ccc2cc1Oc1ccc(cc1)C[C@H]1c3cc(c(OC)cc3CCN1C)Oc1c(OC)c(OC)cc3c1[C@H](C2)N(C)CC3` [FANCHININ]: 1.4 µM (active); for `Cc1cnc(Nc2ccc(OCCN3CCCC3)cc2)nc1Nc1cccc(S(=O)(=O)NC(C)(C)C)c1` [FEDRATINIB]: 1.1 µM (active); for `CC1=C(/C=C/C(C)=C/C=C/C(C)=C/C(=O)Nc2ccc(O)cc2)C(C)(C)CCC1` [FENRETINIDE]: 10.8 µM (active).
The same measure for `CON(C)C(=O)N1N=C(c2cc(F)ccc2F)S[C@@]1(CCCN)c1ccccc1` [FILANESIB]: 11 µM (active); for `O=C(Nc1nc2cccc(-c3ccc(CN4CCS(=O)(=O)CC4)cc3)n2n1)C1CC1` [FILGOTINIB]: 6.4 µM (active).
As to `COc1ccc(-c2nc(N3CCOCC3)c3sc(CN(C)c4ncc(C(=O)NO)cn4)cc3n2)cn1` [FIMEPINOSTAT], the CC50 is < 0.1 µM (active).
In the case of `CCCCCCCCc1ccc(CCC(N)(CO)CO)cc1` [FINGOLIMOD HYDROCHLORIDE], the CC50 is 1.4 µM (active).
The value for `Cc1ncc(NC(=O)c2ccc(CN3CCN(C)CC3)c(C(F)(F)F)c2)cc1Nc1nccc(-c2cccnc2)n1` [FLUMATINIB] was 3.3 µM (active); that for `Fc1ccc(C(c2ccc(F)cc2)N2CCN(C/C=C/c3ccccc3)CC2)cc1` [FLUNARIZINE HYDROCHLORIDE] was 14.6 µM (inactive); that for `CNCCC(Oc1ccc(C(F)(F)F)cc1)c1ccccc1` (stereo not given) [FLUOXETINE HYDROCHLORIDE] was 6.6 µM (active).
The same measure for `OCCN1CCN(CCCN2c3ccccc3Sc3ccc(C(F)(F)F)cc32)CC1` [FLUPHENAZINE HYDROCHLORIDE]: 3.2 µM (active); for `C[C@]12CC[C@H](O)CC1=CC[C@@H]1[C@@H]2CC[C@]2(C)C(n3cnc4ccccc43)=CC[C@@H]12` [GALETERONE]: 10.4 µM (active); for `O=c1cc(-c2ccc(O)c(O)c2)oc2cc(O[C@@H]3O[C@H](CO)[C@@H](O)[C@H](O)[C@H]3O)cc(O)c12` [GALUTEOLIN]: 5.7 µM (inactive).
As to `CC(C)c1cc(-c2n[nH]c(=O)n2-c2ccc3c(ccn3C)c2)c(O)cc1O` [GANETESPIB], the CC50 is < 0.1 µM (active).
The value for `O=C(NOCCO)c1ccc2cncn2c1Nc1ccc(I)cc1F` [GDC-0623] was < 0.1 µM (active); that for `CN(C)C1CCN(C(=O)c2ccc(NC(=O)Nc3ccc(-c4nc(N5CCOCC5)nc(N5CCOCC5)n4)cc3)cc2)CC1` [GEDATOLISIB] was 1.7 µM (active).
The same measure for `CN(C)c1ccc(C(=C2C=CC(=[N+](C)C)C=C2)c2ccc(N(C)C)cc2)cc1` [GENTIAN VIOLET]: 14.6 µM (inactive); for `CN(C)CCCn1cc(C2=C(c3c[nH]c4ccccc34)C(=O)NC2=O)c2ccccc21` [GF-109203]: 4.8 µM (active); for `CC1(C)C=Cc2c(ccc3c2OC[C@@H](c2ccc(O)cc2O)C3)O1` [GLABRIDIN]: 12.8 µM (active).
Take `Cc1cc2c(C(C)C)c(O)c(O)c(C=O)c2c(O)c1-c1c(C)cc2c(C(C)C)c(O)c(O)c(C=O)c2c1O` [GOSSYPOL]: the CC50 was 6.4 µM (active).
Take `CC[C@H](C)n1cc(C)c2c(C(=O)NCc3c(C)cc(C)[nH]c3=O)cc(-c3ccc(N4CCNCC4)nc3)cc21` [GSK2816126]: the CC50 is 4.9 µM (active).
Turning to `CCn1c(-c2nonc2N)nc2cnc(Oc3cccc(NC(=O)c4ccc(OCCN5CCOCC5)cc4)c3)cc21` [GSK-269962A], the CC50 is 3 µM (active).
The value for `C[C@@H](Oc1cc(-n2cnc3ccc(CN4CCN(C)CC4)cc32)sc1C(N)=O)c1ccccc1C(F)(F)F` [GSK-461364] was 3.7 µM (active).
The same measure for `CCn1cc(-c2ccnc3[nH]c(-c4cccc(CN(C)C)c4)cc23)c(-c2ccc(NC(=O)N(C)C)cc2)n1` [GSK-1070916]: 2.8 µM (active); for `CN(c1ccc(NC(=O)Nc2ccc(OC(F)(F)F)cc2)cc1)c1ccnc(Nc2cccc(S(N)(=O)=O)c2)n1` [GW806742X]: 0.9 µM (active).
The same measure for `O=C(CC1NCCCC1O)Cn1cnc2cc(Br)c(Cl)cc2c1=O` (stereo not given) [HALOFUGINONE]: 0.1 µM (active); for `O=C(CCCN1CCC(O)(c2ccc(Cl)cc2)CC1)c1ccc(F)cc1` [HALOPERIDOL]: 9.6 µM (active); for `CCS(=O)(=O)Nc1ccc2c(c1)/C(=C(/Nc1ccc(CN3CCCCC3)cc1)c1ccccc1)C(=O)N2` [HESPERADIN]: 0.2 µM (active).
Turning to `Oc1c(Cl)cc(Cl)c(Cl)c1Cc1c(O)c(Cl)cc(Cl)c1Cl` [HEXACHLOROPHENE], the CC50 is 5.2 µM (active).
In the case of `CC(=O)[C@]1(O)Cc2c(O)c3c(c(O)c2[C@@H](O[C@H]2C[C@H](N)[C@H](O)[C@H](C)O2)C1)C(=O)c1ccccc1C3=O` [IDARUBICIN HYDROCHLORIDE], the CC50 was 0.2 µM (active).
In the case of `Nc1ncc(-c2cnn(CCO)c2)c2scc(-c3ccc(NC(=O)Nc4cccc(F)c4)cc3)c12` [ILORASERTIB], the CC50 was 2.8 µM (active).
Regarding `Cc1ccc(NC(=O)c2ccc(CN3CCN(C)CC3)cc2)cc1Nc1nccc(-c2cccnc2)n1` [IMATINIB], the CC50 is 7.3 µM (active).
On to `CCc1cc2c(cc1CC)CC(NC[C@H](O)c1ccc(O)c3[nH]c(=O)ccc13)C2` [INDACATEROL], for which the CC50 is 9.1 µM (active).
Regarding `CCN1CCN(c2ccc(Nc3cc(N(C)C(=O)Nc4c(Cl)c(OC)cc(OC)c4Cl)ncn3)cc2)CC1` [INFIGRATINIB], the CC50 was 3.3 µM (active).
In the case of `Nc1ncnc2c1c(I)cn2[C@@H]1O[C@H](CO)[C@@H](O)[C@H]1O` [IODOTUBERCIDIN], the CC50 is 0.4 µM (active).
The same measure for `CC(C)NC[C@@H](C(=O)N1CCN(c2ncnc3c2[C@H](C)C[C@H]3O)CC1)c1ccc(Cl)cc1` [IPATASERTIB]: 13 µM (active); for `CCc1c2c(nc3ccc(OC(=O)N4CCC(N5CCCCC5)CC4)cc13)-c1cc3c(c(=O)n1C2)COC(=O)[C@]3(O)CC` [IRINOTECAN]: 10.1 µM (active).
Regarding `Cc1ccc(C(=O)N(CCCN)[C@@H](c2nc3cc(Cl)ccc3c(=O)n2Cc2ccccc2)C(C)C)cc1` [ISPINESIB], the CC50 is 5.5 µM (active).
In the case of `CCC(C)n1ncn(-c2ccc(N3CCN(c4ccc(OCC5COC(Cn6cncn6)(c6ccc(Cl)cc6Cl)O5)cc4)CC3)cc2)c1=O` (stereo not given) [ITRACONAZOLE], the CC50 is 4.9 µM (active).
Regarding `CC(C)(C)c1cc(C(C)(C)C)c(NC(=O)c2c[nH]c3ccccc3c2=O)cc1O` [IVACAFTOR], the CC50 is 7.5 µM (active).
For the compound `CC(C)C[C@H](NC(=O)CNC(=O)c1cc(Cl)ccc1Cl)B(O)O` [IXAZOMIB], the CC50 is 0.1 µM (active).
The same measure for `O=C(Nc1cnccc1Cl)N1CCN(Cc2ccc3c(c2)OC(F)(F)O3)CC1` [JNJ-42165279]: 11.9 µM (inactive); for `CO/N=C(/C(=O)OC)c1ccccc1COc1ccccc1C` [KRESOXIM-METHYL]: 12.5 µM (active).
Regarding `N#Cc1ccc(Cn2cncc2CN2CCN(c3cccc(Cl)c3)C(=O)C2)cc1` [L-778123], the CC50 is 1.1 µM (active).
With `CC1(C)CCC2=C(O1)c1ccccc1C(=O)C2=O` [LAPACHONE], the CC50 is 2.3 µM (active).
On to `CN[C@@H](C)C(=O)N[C@H](C(=O)N1CCC[C@H]1c1nc(C(=O)c2ccc(F)cc2)cs1)C1CCCCC1` [LCL-161], for which the CC50 was 6.8 µM (active).
For the compound `CC(C)n1c(/C=C/[C@@H](O)C[C@@H](O)CC(=O)O)c(-c2ccc(F)cc2)c2ccccc21` [LESCOL], the CC50 was 7.4 µM (active).
Consider `CC(=O)N1CCN(c2ccc(OC[C@@H]3CO[C@@](Cn4ccnc4)(c4ccc(Cl)cc4Cl)O3)cc2)CC1` [LEVOKETOCONAZOLE], for which the CC50 is 11.6 µM (active).
In the case of `O=C1CCc2c(Oc3ccc4c(c3)[C@@H]3[C@H](O4)[C@H]3c3nc4ccc(C(F)(F)F)cc4[nH]3)ccnc2N1` [LIFIRAFENIB], the CC50 is 0.5 µM (active).

The record behind these values is ChEMBL document CHEMBL5303711, “ECBD screening data for assay EOS300108” (2023).
